Measurements from patent US10750743B2, “Pyridazinone herbicides” (E.I. DU PONT DE NEMOURS AND COMPANY, priority 2015, dated 2020).

Key:
Type in all cases: in vivo
[1] = tested on: foxtail, giant (giant foxtail, Setaria faberii); assay: Test A preemergence, directed soil spray, visual injury rating; conditions: 0 is no effect, 100 is complete control
How it was run: (§1)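 Seeds sown in a loam soil–sand blend received a directed preemergence soil spray of test chemical in a non-phytotoxic solvent mixture with surfactant. Postemergence plants were sprayed at 2 to 10 cm, one- to two-leaf stage. After approximately 10 d in greenhouse, injury was visually rated 0 (no effect) to 100 (complete control) against untreated controls.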

[2] = tested on: ryegrass, It. (Italian ryegrass, Lolium multiflorum); assay: as above; conditions: 0 is no effect, 100 is complete control
How it was run: as §1

kochia (Kochia scoparia) [3] = assay: as above; conditions: 0 is no effect, 100 is complete control
How it was run: as §1

[4] = tested on: pigweed (Amaranthus retroflexus); assay: as above; conditions: 0 is no effect, 100 is complete control
How it was run: as §1

[5] = tested on: barnyardgrass (Echinochloa crus-galli); assay: as above; conditions: 0 is no effect, 100 is complete control
How it was run: as §1

[6] = tested on: ragweed (common ragweed, Ambrosia elatior); assay: as above; conditions: 0 is no effect, 100 is complete control
How it was run: as §1

rice (Oryza sativa) = assay: Test B flooded paddy test, visual rating; conditions: Flood, 250 g ai/ha, applied to paddy water, rated after 13 to 15 d
How it was run: (§2)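 Plants at the 2-leaf stage were flooded to 3 cm above soil, and test compounds were applied directly into the paddy water, which was held at that depth throughout. After 13 to 15 d in a greenhouse, injury was rated visually against untreated controls on a 0–100 scale (0 no effect, 100 complete control).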

[7] = tested on: sedge, umbrella (small-flower umbrella sedge, Cyperus difformis); assay: Test B flooded paddy test, visual rating; conditions: Flood, 250 g ai/ha, applied to paddy water, rated after 13 to 15 d
How it was run: as §2

[8] = tested on: barnyardgrass (Echinochloa crus-galli); assay: Test B flooded paddy test, visual rating; conditions: Flood, 250 g ai/ha, applied to paddy water, rated after 13 to 15 d
How it was run: as §2

[9] = tested on: ducksalad (Heteranthera limosa); assay: Test B flooded paddy test, visual rating; conditions: Flood, 250 g ai/ha, applied to paddy water, rated after 13 to 15 d
How it was run: as §2

[10] = tested on: foxtail, giant (giant foxtail, Setaria faberii); assay: Test A postemergence application, visual injury rating; conditions: 0 to 100 scale, 0 no effect, 100 complete control
How it was run: as §1

[11] = tested on: ryegrass, It. (Italian ryegrass, Lolium multiflorum); assay: as above; conditions: 0 to 100 scale, 0 no effect, 100 complete control
How it was run: as §1

corn (Zea mays) = assay: as above; conditions: 0 to 100 scale, 0 no effect, 100 complete control
How it was run: as §1

kochia (Kochia scoparia) [12] = assay: as above; conditions: 0 to 100 scale, 0 no effect, 100 complete control
How it was run: as §1

[13] = tested on: blackgrass (Alopecurus myosuroides); assay: as above; conditions: 0 to 100 scale, 0 no effect, 100 complete control
How it was run: as §1

[14] = tested on: pigweed (Amaranthus retroflexus); assay: as above; conditions: 0 to 100 scale, 0 no effect, 100 complete control
How it was run: as §1

[15] = tested on: wheat (Triticum aestivum); assay: as above; conditions: 0 to 100 scale, 0 no effect, 100 complete control
How it was run: as §1

[16] = tested on: barnyardgrass (Echinochloa crus-galli); assay: as above; conditions: 0 to 100 scale, 0 no effect, 100 complete control
How it was run: as §1

[17] = tested on: galium (catchweed bedstraw, Galium aparine); assay: as above; conditions: 0 to 100 scale, 0 no effect, 100 complete control
How it was run: as §1

[18] = tested on: ragweed (common ragweed, Ambrosia elatior); assay: as above; conditions: 0 to 100 scale, 0 no effect, 100 complete control
How it was run: as §1

SMILES	Plant response rating (0 to 100 scale), Foxtail, Giant ([1]; 125 g ai/ha)	Plant response rating (0 to 100 scale), Ryegrass, It. ([2]; 125 g ai/ha)	Plant response rating (0 to 100 scale), Kochia (kochia (Kochia scoparia) [3]; 125 g ai/ha)	Plant response rating (0 to 100 scale), Pigweed ([4]; 125 g ai/ha)	Plant response rating (0 to 100 scale), Barnyardgrass ([5]; 125 g ai/ha)	Plant response rating (0 to 100 scale), Ragweed ([6]; 125 g ai/ha)	Rice plant response rating (0 to 100 scale, 0 is no effect, 100 is complete control) (rice (Oryza sativa))	Sedge, Umbrella plant response rating (0 to 100 scale, 0 is no effect, 100 is complete control) [7]	Barnyardgrass plant response rating (0 to 100 scale, 0 is no effect, 100 is complete control) [8]	Ducksalad plant response rating (0 to 100 scale, 0 is no effect, 100 is complete control) [9]	Foxtail, Giant plant response rating ([10]; 125 g ai/ha)	Ryegrass, It. plant response rating ([11]; 125 g ai/ha)	Corn plant response rating (corn (Zea mays); 125 g ai/ha)	Kochia plant response rating (kochia (Kochia scoparia) [12]; 125 g ai/ha)	Blackgrass plant response rating ([13]; 125 g ai/ha)	Pigweed plant response rating ([14]; 125 g ai/ha)	Wheat plant response rating ([15]; 125 g ai/ha)	Barnyardgrass plant response rating ([16]; 125 g ai/ha)	Galium plant response rating ([17]; 125 g ai/ha)	Ragweed plant response rating ([18]; 125 g ai/ha)	further results
Cc1nn(C)c(=O)c(-c2c(C)sc3ncccc23)c1OC(=O)C1CC1 [Compound 23]	0	0	0	0	0	0	0	0	0	0	0	0	0	0	0	0	0	0	0	0	Plant response rating (0 to 100 scale), Foxtail, Giant ([1]; 500 g ai/ha): 0; Plant response rating (0 to 100 scale), Ryegrass, It. ([2]; 500 g ai/ha): 0; Plant response rating (0 to 100 scale), Kochia (kochia (Kochia scoparia) [3]; 500 g ai/ha): 0; Plant response rating (0 to 100 scale), Pigweed ([4]; 500 g ai/ha): 0; Plant response rating (0 to 100 scale), Barnyardgrass ([5]; 500 g ai/ha): 0; Plant response rating (0 to 100 scale), Ragweed ([6]; 500 g ai/ha): 0; Foxtail, Giant plant response rating ([10]; 500 g ai/ha): 0; Ryegrass, It. plant response rating ([11]; 500 g ai/ha): 10; Corn plant response rating (corn (Zea mays); 500 g ai/ha): 20; Kochia plant response rating (kochia (Kochia scoparia) [12]; 500 g ai/ha): 0; Blackgrass plant response rating ([13]; 500 g ai/ha): 0; Pigweed plant response rating ([14]; 500 g ai/ha): 40; Wheat plant response rating ([15]; 500 g ai/ha): 0; Barnyardgrass plant response rating ([16]; 500 g ai/ha): 0; Galium plant response rating ([17]; 500 g ai/ha): 0; Ragweed plant response rating ([18]; 500 g ai/ha): 0
CCOC(=O)Oc1c(C)nn(C)c(=O)c1-c1c(C)sc2ncccc12 [Compound 24]	0	10	0	0	0	0	0	0	0	0	0	0	0	0	0	0	0	0	0	0	Plant response rating (0 to 100 scale), Foxtail, Giant ([1]; 500 g ai/ha): 0; Plant response rating (0 to 100 scale), Ryegrass, It. ([2]; 500 g ai/ha): 20; Plant response rating (0 to 100 scale), Kochia (kochia (Kochia scoparia) [3]; 500 g ai/ha): 0; Plant response rating (0 to 100 scale), Pigweed ([4]; 500 g ai/ha): 0; Plant response rating (0 to 100 scale), Barnyardgrass ([5]; 500 g ai/ha): 0; Plant response rating (0 to 100 scale), Ragweed ([6]; 500 g ai/ha): 0; Foxtail, Giant plant response rating ([10]; 500 g ai/ha): 0; Ryegrass, It. plant response rating ([11]; 500 g ai/ha): 20; Corn plant response rating (corn (Zea mays); 500 g ai/ha): 10; Kochia plant response rating (kochia (Kochia scoparia) [12]; 500 g ai/ha): 0; Blackgrass plant response rating ([13]; 500 g ai/ha): 0; Pigweed plant response rating ([14]; 500 g ai/ha): 10; Wheat plant response rating ([15]; 500 g ai/ha): 0; Barnyardgrass plant response rating ([16]; 500 g ai/ha): 0; Galium plant response rating ([17]; 500 g ai/ha): 0; Ragweed plant response rating ([18]; 500 g ai/ha): 0
CCC(=O)Oc1c(C)nn(C)c(=O)c1-c1cccc2cc(C)oc12 [Compound 26]	0	80	30	10	0	10	0	0	0	0	30	80	0	20	20	40	0	10	90	30	Plant response rating (0 to 100 scale), Foxtail, Giant ([1]; 31 g ai/ha): 0; Plant response rating (0 to 100 scale), Ryegrass, It. ([2]; 31 g ai/ha): 10; Plant response rating (0 to 100 scale), Kochia (kochia (Kochia scoparia) [3]; 31 g ai/ha): 0; Plant response rating (0 to 100 scale), Pigweed ([4]; 31 g ai/ha): 0; Plant response rating (0 to 100 scale), Barnyardgrass ([5]; 31 g ai/ha): 0; Plant response rating (0 to 100 scale), Ragweed ([6]; 31 g ai/ha): 0; Foxtail, Giant plant response rating ([10]; 31 g ai/ha): 0; Ryegrass, It. plant response rating ([11]; 31 g ai/ha): 50; Corn plant response rating (corn (Zea mays); 31 g ai/ha): 0; Kochia plant response rating (kochia (Kochia scoparia) [12]; 31 g ai/ha): 20; Blackgrass plant response rating ([13]; 31 g ai/ha): 0; Pigweed plant response rating ([14]; 31 g ai/ha): 30; Wheat plant response rating ([15]; 31 g ai/ha): 0; Barnyardgrass plant response rating ([16]; 31 g ai/ha): 0; Galium plant response rating ([17]; 31 g ai/ha): 70; Ragweed plant response rating ([18]; 31 g ai/ha): 0
